Among the data in publication PMC3017052, “A Novel Peptide Derived from Human Apolipoprotein E Is an Inhibitor of Tumor Growth and Ocular Angiogenesis” (PLoS ONE, 2011) are IC50 values, retold here.

Assay [1] has as its system HUVEC. The assay is classed as cell-based, human. The text has this: The cellular mechanisms of angiogenesis involve motility and alignment of ECs to form a capillary tube-like network on matrigel. Thus, we assessed whether or not apoEdp impaired EC differentiation in the tube formation assay as described in the Materials and Methods. The numbers of tubular structures (Fig. 3A) were quantitatively analyzed. […] “Percentage (%) of inhibition” in Fig. 3C is the mean number (± SEM) of tubules expressed as a proportion of that in the VEGF control group. ** p<0.01 and *** p<0.001.
Figure 3 ApoEdp inhibited capillary tubule formation (in vitro angiogenesis). […] Tubular structures were quantitated by manual counting under low power fields. […] (C) “Percentage (%) of inhibition” is the mean number (± SEM) of tubules expressed as a proportion of that in the VEGF control group. ** p<0.01 and *** p<0.001. […]
Matrigel (Sigma Aldrich, St Louis, MO) was thawed overnight on ice. […] After 12–16 hr, microtubule formation was assessed with an inverted photomicroscope and the images were photographed using Olympus U-RLF-T microscope. Manual counting at low power fields was used to quantitate tubular structures and percentage of inhibition was expressed using VEGF control wells as 100%.

Assay [2] concerns HUVEC. Description: Boyden chamber migration/invasion assay. It is filed as cell-based, human. The following applies: Boyden chamber transwell, 50 ng/mL VEGF, 16 hr at 37°C, apoEdp 6–100 µM; read-out: IC50, inhibition of VEGF-induced HUVEC migration and invasion. An excerpt:
The complex process of new blood vessel formation involves migration and invasion of ECs. The inhibition of EC motility through migration and invasion could thus be expected to affect the angiogenic process. To evaluate the ability of apoEdp in blocking VEGF-induced HUVEC migration and invasion, we used a Boyden chamber transwell assay (Materials and Methods). We quantified the invasion of HUVECs across the transwell. Cells which invaded across the membrane were stained with hematoxylin and eosin stain and counted (Fig. 4A–B). […] All values were normalized to cell numbers of transwells exposed to EBM containing 1% FBS without apoEdp and VEGF.
Figure 4 ApoEdp inhibits endothelial cell invasion. About 4×10^4 HUVECs were placed into each insert of Boyden chamber ([…]) (BD Biosciences) of 24-well transwell plate. The bottom chambers were filled with 600 µL medium supplemented with 50 ng/mL VEGF. The top chamber was seeded with approximately 4×10^4 HUVEC cells/well in 100 µL containing different concentrations of apoEdp and incubated at 37°C for 16 hs. HUVEC cells were then fixed and stained with H&E and counted under the microscope. […]
Boyden chamber migration/invasion assays were performed. […] Transwell invaded cells were counted using an inverted microscope. Three independent areas per filter were counted, and the mean ± SEM number of migrated cells was calculated.

Read-outs that look alike come from different tables or passages of the source.

Take Ac-LRKLRKRLLLRKLRKRLL-NH2 [apoEdp]: the IC50 was 9 µM in the assay with HUVEC [1] and roughly 31.5 µM in the assay with HUVEC [2].
